The values below come from ChEMBL document CHEMBL1201862, “PubChem BioAssay data set” (2004).

Assay [1] can be described thus: inhibitors of intracellular T. cruzi replication, confirmation, NIH3T3 host cells, beta-gal luminescence (AID 2044).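 Also: intracellular parasites grown in NIH/3T3 mouse fibroblasts as host cells; luminescent beta-galactosidase reporter signal from transgenic T. cruzi replicating inside host cells; inhibitors lower the luminescence signal.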 The format is functional, cell-based.
The nature of assay [2]: cytotoxicity toward NIH3T3 fibroblasts, dose response, counter-screen, cell-based, ATP luminescence, mouse fibroblasts (AID 2010).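 Also: cells exposed to compound for about 90 hours before reading.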 The format is functional. (A counterscreen serves to expose hits that act by an unwanted route or on another target.)
Assay [3] in a line: growth suppression of beta-catenin-knockout colon cells, dose response, cell-based, HCT116, human colon tumor (AID 1045).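 Also: HCT116 colon tumor cells with beta catenin knocked out; cells exposed to compound for 60 hours.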 Type of assay: functional.
Assay [4] has as its target T1, Microphthalmia-associated transcription factor (Homo sapiens, UniProt O75030).
T1 sequence (O75030 whole entry): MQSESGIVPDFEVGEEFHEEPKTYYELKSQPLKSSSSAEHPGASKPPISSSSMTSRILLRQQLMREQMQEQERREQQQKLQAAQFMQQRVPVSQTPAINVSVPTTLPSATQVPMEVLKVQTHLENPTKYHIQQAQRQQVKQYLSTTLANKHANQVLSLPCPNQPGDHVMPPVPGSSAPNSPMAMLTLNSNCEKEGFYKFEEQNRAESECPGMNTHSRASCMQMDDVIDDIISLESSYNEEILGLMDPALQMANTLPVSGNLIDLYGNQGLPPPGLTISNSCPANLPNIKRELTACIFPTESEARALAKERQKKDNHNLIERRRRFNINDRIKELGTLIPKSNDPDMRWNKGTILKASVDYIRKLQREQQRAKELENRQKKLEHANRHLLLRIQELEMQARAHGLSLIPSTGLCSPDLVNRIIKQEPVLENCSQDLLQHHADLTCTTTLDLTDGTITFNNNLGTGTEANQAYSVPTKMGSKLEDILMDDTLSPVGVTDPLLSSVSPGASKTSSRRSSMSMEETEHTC
As to the kind of experiment: TRPM1 promoter luciferase signal decrease, dose response, MITF inhibitor project, cell-based, SK-MEL-5, cherry-picked, set 3 (AID 493073).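 Also: SK-MEL-5 melanoma cells with luciferase driven by the MITF target TRPM1 promoter.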 The format is functional.

Assay [5] concerns Streptococcus sp. 'group A'. Description: growth inhibition of control SK(-) GAS strain, dose response, counter-screen for streptokinase expression inhibitor project, luminescence, kanamycin, BacTiterGlo, confirmation (AID 1900). Type of assay: functional, organism-based.
Assay [6] deals with BJ. As to the kind of experiment: cytotoxicity toward BJ-TERT fibroblasts, dose response, cell-based, RAS-independent, luminescence (AID 1933). Type of assay: functional. The conditions noted are these: Homo sapiens.
Assay [7] has as its target Transitional endoplasmic reticulum ATPase (Homo sapiens, UniProt P55072, C522A). As to the kind of experiment: C522A mutant p97 ATPase inhibitors, dose response, counter-screen for p97 inhibitor project, biochemical, luminescence (AID 1544).
In assay [8] the test system is BJ. As to the kind of experiment: cells. Type of assay: functional, cell-based. The conditions noted are these: Homo sapiens.
The subject of assay [9] is BJ. As to the kind of experiment: cytotoxicity toward BJ-TERT-LT-ST fibroblasts, dose response, cell-based, RAS-independent, luminescence (AID 1935).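 Also: BJ fibroblasts immortalized with TERT plus LT and ST oncogenes.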 Type of assay: functional. The conditions noted are these: Homo sapiens.
The target in assay [10] is Transitional endoplasmic reticulum ATPase (Homo sapiens, UniProt P55072). Description: p97 ATPase inhibitors, dose response, biochemical (AID 1534).
The next assay deals with Streptococcus. As to the kind of experiment: Group A Streptococcus viability loss, dose response, counter-screen for streptokinase expression inhibitor project, luminescence, BacTiterGlo (AID 1915).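 Also: potency for reduction of bacterial viability or growth.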 The format is functional, organism-based.
A further assay deals with INS1. Description: beta cell apoptosis inhibitors, cytokine rescue, dose response, luminescence, retest (AID 449756).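 Also: cell death triggered by IL-1 beta plus TNF-alpha plus IFN-gamma mixture; protective hits raise ATP signal compared with cytokine alone wells.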 The format is functional, cell-based. The conditions noted are these: Rattus norvegicus.
Assay [11] deals with T2, Tyrosyl-DNA phosphodiesterase 2 (Homo sapiens, UniProt O95551).
T2 sequence (O95551 whole entry): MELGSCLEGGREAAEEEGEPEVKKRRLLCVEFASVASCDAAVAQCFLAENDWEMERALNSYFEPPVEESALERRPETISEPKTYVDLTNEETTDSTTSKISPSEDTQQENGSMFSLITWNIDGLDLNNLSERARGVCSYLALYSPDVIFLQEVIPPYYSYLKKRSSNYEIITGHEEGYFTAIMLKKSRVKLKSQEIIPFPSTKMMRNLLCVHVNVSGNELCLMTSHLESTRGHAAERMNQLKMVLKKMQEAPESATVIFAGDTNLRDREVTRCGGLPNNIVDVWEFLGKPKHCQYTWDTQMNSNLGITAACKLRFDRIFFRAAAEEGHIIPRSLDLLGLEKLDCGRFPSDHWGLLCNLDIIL
Description: human TDP2 enzyme inhibitors, dose response, biochemical, epi absorbance, IC50 (AID 743297).

In another assay the target is T3, Caspase-3 (Homo sapiens, UniProt P42574).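 Also: Dose-response selectivity test against caspase-3 for candidate inhibitors of sentrin-specific proteases (SENPs).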
T3 sequence (P42574 whole entry): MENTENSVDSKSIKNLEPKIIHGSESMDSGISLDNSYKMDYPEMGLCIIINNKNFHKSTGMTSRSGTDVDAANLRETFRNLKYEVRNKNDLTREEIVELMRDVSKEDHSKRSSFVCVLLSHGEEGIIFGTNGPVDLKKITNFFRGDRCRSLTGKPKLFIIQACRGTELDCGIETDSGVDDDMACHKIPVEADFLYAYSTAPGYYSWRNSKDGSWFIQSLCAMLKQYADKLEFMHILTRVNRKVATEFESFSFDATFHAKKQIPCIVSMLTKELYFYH
The format is functional.

Assay [12] concerns the target T4, Sentrin-specific protease 6 (Homo sapiens, UniProt Q9GZR1).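 Also: Luminescence-based dose-response confirmatory assay of SENP6 inhibition, following up an ultra-high-throughput screen.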
T4 sequence (Q9GZR1 whole entry): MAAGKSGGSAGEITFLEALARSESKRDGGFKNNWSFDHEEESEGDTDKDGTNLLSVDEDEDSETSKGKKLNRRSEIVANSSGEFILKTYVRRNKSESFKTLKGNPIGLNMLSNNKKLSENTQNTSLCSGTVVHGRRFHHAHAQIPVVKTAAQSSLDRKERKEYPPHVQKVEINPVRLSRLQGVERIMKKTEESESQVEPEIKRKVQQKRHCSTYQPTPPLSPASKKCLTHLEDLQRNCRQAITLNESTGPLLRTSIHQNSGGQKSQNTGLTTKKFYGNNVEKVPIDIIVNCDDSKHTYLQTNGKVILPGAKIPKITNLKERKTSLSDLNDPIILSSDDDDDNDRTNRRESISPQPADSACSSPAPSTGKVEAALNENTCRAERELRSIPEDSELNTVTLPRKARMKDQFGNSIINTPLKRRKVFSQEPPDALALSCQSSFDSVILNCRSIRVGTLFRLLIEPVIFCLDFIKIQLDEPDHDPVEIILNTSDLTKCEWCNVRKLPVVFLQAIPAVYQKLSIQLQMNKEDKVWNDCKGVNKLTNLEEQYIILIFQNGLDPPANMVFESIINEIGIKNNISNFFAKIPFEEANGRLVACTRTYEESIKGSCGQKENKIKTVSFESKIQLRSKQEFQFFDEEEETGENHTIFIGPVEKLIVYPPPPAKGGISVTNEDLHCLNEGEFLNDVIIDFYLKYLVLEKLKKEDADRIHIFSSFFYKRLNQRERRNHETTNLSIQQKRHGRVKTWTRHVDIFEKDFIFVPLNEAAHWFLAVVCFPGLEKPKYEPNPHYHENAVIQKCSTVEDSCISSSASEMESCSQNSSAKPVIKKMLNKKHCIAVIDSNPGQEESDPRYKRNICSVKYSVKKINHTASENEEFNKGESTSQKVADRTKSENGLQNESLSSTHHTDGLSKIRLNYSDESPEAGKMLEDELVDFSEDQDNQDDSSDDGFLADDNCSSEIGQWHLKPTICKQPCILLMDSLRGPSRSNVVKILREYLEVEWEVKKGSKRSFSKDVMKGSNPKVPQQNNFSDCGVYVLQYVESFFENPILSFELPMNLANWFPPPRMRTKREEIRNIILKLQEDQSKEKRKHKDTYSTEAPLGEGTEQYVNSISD
The format is functional.

Active and inactive are the calls of the source.

Chain of Transitional endoplasmic reticulum ATPase (Homo sapiens, UniProt P55072, C522A) (P55072 2-806 C522A limits assumed): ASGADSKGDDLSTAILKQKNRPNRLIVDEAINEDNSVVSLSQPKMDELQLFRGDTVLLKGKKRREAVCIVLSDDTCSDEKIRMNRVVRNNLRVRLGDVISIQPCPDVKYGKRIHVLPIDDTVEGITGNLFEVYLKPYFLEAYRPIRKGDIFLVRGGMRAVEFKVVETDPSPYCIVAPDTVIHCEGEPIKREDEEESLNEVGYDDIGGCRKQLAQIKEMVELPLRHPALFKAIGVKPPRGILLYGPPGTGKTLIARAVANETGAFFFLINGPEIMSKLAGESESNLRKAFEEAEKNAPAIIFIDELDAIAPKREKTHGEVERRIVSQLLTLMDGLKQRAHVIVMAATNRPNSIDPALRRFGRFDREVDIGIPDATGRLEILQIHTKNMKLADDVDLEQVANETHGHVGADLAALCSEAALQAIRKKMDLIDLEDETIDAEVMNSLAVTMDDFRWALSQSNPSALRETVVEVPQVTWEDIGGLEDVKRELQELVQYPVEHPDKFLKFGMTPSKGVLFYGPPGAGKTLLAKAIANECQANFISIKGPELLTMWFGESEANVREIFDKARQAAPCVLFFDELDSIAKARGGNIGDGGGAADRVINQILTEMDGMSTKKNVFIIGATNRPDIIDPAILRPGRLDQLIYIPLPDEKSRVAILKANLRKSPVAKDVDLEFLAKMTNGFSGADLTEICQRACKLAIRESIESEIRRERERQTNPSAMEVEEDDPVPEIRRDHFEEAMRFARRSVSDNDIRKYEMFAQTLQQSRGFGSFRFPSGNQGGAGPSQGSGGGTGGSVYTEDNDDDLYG
Chain of Transitional endoplasmic reticulum ATPase (Homo sapiens, UniProt P55072) (P55072 whole entry): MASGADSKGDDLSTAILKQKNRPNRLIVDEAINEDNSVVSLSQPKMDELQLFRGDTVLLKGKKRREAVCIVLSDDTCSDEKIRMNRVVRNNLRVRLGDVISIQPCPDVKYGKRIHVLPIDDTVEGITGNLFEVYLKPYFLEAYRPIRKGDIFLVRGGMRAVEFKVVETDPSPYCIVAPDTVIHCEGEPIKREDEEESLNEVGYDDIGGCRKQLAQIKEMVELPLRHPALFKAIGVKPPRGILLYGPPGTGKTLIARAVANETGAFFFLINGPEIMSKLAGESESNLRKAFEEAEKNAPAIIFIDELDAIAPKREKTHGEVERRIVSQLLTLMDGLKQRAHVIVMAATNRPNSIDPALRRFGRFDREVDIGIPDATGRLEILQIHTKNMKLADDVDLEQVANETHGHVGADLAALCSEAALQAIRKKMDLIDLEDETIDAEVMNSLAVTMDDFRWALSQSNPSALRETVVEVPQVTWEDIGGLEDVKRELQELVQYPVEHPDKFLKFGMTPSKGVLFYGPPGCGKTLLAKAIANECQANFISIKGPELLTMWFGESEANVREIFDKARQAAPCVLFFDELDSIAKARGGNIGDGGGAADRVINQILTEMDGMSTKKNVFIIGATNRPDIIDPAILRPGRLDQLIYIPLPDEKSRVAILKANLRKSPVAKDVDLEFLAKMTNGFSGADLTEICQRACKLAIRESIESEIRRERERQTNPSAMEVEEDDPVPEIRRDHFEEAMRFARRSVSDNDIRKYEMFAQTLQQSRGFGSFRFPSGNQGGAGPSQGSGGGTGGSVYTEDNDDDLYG

Take `CCC(=O)OCCNc1cc(Sc2nccn2C)c2nonc2c1[N+](=O)[O-]`: the EC50 in assay [1] was 1.97 µM (active); in [2] it was 3.62 µM (active); in assay [3] it was 3.98 µM (active). Moreover, in assay [4], the AC50 is 7.16 µM (active).

`O=C1C(=O)c2ccccc2-c2ccccc21` [9,10-PHENANTHRENEQUINONE]: the EC50 in [5] is 1.33 µM (active); with BJ [6], 1.96 µM (active); with BJ [8], 5.99 µM (inconclusive); in the assay with BJ [9], 1.63 µM (inconclusive); with Streptococcus, 2.3 µM (active). In addition, the results for the 50% inhibitory concentration (IC50) in [7], in assay [10] and in assay [11] were > 50 µM (not active), > 50 µM (not active) and 1.91 µM (active), respectively. The AC50 with INS1 is 1.01 µM (active).

Consider `CCOC(=O)C1=C(c2ccc(OC)cc2)C(=O)c2ccccc2C1=O`, for which the EC50 in [5] is 1.51 µM (active); in assay [3], 2.33 µM (active); with Streptococcus it was 6.2 µM (active). Moreover, in the assay on INS1, the concentration at half-maximal activity (AC50) is 2.2 µM (active).

Turning to `CCc1ccc(OCC(=O)N/N=C2\CC(=O)c3ccccc32)cc1`, in assay [3], the 50% effective concentration (EC50) was 11.6 µM (active). For the same compound, the results for the concentration for half-maximal inhibition (IC50) (on Caspase-3; in assay [12]) were 3.7 µM (active) and 4.06 µM (active), respectively.

For the compound `CCCCn1c(NC(=O)c2ccccc2Cl)c(C#N)c2nc3ccccc3nc21`, the concentration for half-maximal inhibition (IC50) in [7] was > 50 µM (not active); in assay [10] it was > 50 µM (not active); on Caspase-3, 12.2 µM (active); in assay [12], 0.986 µM (active); in assay [11], > 4.76 µM (active).

In the case of `O=C1c2cc(F)ccc2-n2c1nc1ccccc1c2=O`, in [4], the concentration at half-maximal activity (AC50) is 1.05 µM (active).

In the case of `O=C1C=C(N(CCO)Cc2ccccc2)c2ccccc2C1=O`, the results for the half-maximal effective concentration (EC50) in assay [1] and in [2] were > 30 µM (not active) and 5.31 µM (active), respectively. In addition, the AC50 in assay [4] is 4.78 µM (active).

For `COCCCNC(=O)c1ccc2c3c(onc13)-c1ccccc1C2=O`, the results for the EC50 in the assay with BJ [6], in the assay with BJ [8] and in the assay with BJ [9] were 8.03 µM (inconclusive), > 150 µM (not active) and 7.47 µM (active), respectively.

For orientation: EC50 means the midpoint of the concentration-response curve. Usually AC50 stands for the midpoint of the concentration-response curve, whichever way the signal moves. A word on the IC50: it is the concentration that inhibits the measured activity by half.
